# Like-named read-outs stand apart in the source and are kept apart here. Marks after values point to notes of the source that are not given here. Starred links: 1 amine or outer side, 2 acyl side, 3 side chain; linkers in the order of their positions; H or OH if unused. Positions of bridges follow the written chain, without caps; N, C: chain ends. Non-standard residues stand in square brackets, D forms with d. Residues, ends and D or L forms follow the SMILES beside them. Chains are numbered I, II in the order given. Actinocin(9to1) = Cc1c2oc3c(C)ccc(C(=O)[*:1])c3nc-2c(C(=O)[*:2])c(N)c1=O; NMeV = CN[C@H](C(=O)O)C(C)C; Sar = CNCC(=O)O
# Tests used:
# human DNA polymerase β = human DNA polymerase β (Homo sapiens, UniProt P06746); experiment: Inhibition of human DNA polymerase β; type: biochemical
# human DNA polymerase α = human DNA polymerase α (Homo sapiens, UniProt P09884); experiment: Inhibition of human DNA polymerase α; type: biochemical
# human DNA polymerase γ = target: T1, human DNA polymerase γ (Homo sapiens, UniProt P54098); experiment: biochemical
# T1 sequence (P54098 1-1239): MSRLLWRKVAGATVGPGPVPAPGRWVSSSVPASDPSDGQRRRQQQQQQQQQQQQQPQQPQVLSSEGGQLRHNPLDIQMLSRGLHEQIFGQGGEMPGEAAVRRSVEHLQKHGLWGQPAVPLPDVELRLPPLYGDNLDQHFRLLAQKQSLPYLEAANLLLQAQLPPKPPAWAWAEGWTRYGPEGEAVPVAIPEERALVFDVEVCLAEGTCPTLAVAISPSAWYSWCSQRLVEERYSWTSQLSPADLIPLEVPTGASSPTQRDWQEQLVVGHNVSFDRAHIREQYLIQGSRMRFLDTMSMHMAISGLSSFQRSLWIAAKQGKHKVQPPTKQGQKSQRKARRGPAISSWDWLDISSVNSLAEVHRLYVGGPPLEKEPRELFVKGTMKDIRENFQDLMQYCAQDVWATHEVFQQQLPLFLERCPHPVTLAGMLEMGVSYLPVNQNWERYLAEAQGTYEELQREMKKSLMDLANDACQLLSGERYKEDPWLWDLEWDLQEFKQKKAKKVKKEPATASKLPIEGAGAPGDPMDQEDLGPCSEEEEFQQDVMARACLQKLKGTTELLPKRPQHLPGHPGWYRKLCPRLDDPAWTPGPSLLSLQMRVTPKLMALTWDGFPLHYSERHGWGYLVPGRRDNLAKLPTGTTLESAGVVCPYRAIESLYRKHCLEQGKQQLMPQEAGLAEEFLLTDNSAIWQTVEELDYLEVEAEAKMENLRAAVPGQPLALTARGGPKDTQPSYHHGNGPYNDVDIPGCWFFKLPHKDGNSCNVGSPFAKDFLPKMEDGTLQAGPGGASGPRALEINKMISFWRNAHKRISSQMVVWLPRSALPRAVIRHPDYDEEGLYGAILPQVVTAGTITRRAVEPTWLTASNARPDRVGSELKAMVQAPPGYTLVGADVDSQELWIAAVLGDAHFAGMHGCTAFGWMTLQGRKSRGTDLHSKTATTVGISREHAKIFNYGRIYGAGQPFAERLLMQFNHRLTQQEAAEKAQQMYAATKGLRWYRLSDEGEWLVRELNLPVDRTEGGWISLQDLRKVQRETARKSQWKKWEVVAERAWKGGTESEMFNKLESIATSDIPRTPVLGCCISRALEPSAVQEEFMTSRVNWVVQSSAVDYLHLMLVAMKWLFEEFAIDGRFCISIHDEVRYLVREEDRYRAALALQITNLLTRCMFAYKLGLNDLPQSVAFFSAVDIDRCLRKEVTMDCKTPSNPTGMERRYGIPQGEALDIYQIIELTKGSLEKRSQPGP
# Sb-1 = experiment: organism not typed; type: cell-based, Sabin type 1 poliomyelitis virus; details: read-out: Sb-1
# BVDV [1] = type: cell-based, bovine viral diarrhea virus
# BVDV [2] = experiment: Exploratory cell culture studies of mUrd, antiviral efficacy against BVDV; type: cell-based, bovine viral diarrhea virus; details: less potent than mCyd
# DENV 2 = experiment: microbe, parasite or virus in culture; type: cell-based, dengue virus; details: read-out: DENV 2
# YFV = type: cell-based, yellow fever virus; details: Tables 30b, 30k-30o
# REO-1 = experiment: microbe, parasite or virus in culture; type: cell-based, double-stranded RNA Reovirus; details: read-out: REO
# [3] = system: variety of cytotoxicity tests; experiment: Exploratory cytotoxicity tests of mUrd (bone marrow, mitochondrial function, incorporation into nucleic acid); type: cell-based; details: high concentrations
# [4] = Exposure of chimpanzees to mCyd, serum HPLC; details: after val-mCyd; lower limit of quantification 0.4 μM (100 ng/mL)
# WNV = experiment: microbe, parasite or virus in culture; type: cell-based, West Nile virus; details: read-out: WNV
# [5] = system: wide spectrum of other viruses; experiment: Exploratory cell culture studies of mUrd, other viruses; type: cell-based
# CVB-2 = experiment: organism not typed; type: cell-based, Coxsackie B-2 virus; details: read-out: CVB-2
# [6] = system: MT-4 human T-lymphocyte cells
# HepG2 cells [7] = details: 10 μM; cell type not stated; cited from earlier work
# HCV = details: ribavirin alone; cited from earlier work
# HepG2 cells [8] = experiment: Incorporation of drug into cellular RNA and DNA
# [9] = system: HepG2 human hepatoma cell line; experiment: Cytotoxicity (cell proliferation) assay, HepG2; details: rapid cell division; listed as RBV
# [10] = system: BVDV New York-1 (NY-1) strain; experiment: MDBK cells persistently infected with BVDV strain New York-1, virus titer; type: cell-based, bovine viral diarrhea virus; details: 200 IU/ml alone
# [11] = system: BVDV (strain I-N-dIns), noncytopathic; type: cell-based, bovine viral diarrhea virus; details: titrated from 0 to 2,000 IU per ml
# BVDV [12] = type: cell-based, bovine viral diarrhea virus; remark: listed apart in the source
# S405T mutant BVDV = type: cell-based, bovine viral diarrhea virus; details: more sensitive
# human DNA polymerase α, sequence (P09884 whole entry): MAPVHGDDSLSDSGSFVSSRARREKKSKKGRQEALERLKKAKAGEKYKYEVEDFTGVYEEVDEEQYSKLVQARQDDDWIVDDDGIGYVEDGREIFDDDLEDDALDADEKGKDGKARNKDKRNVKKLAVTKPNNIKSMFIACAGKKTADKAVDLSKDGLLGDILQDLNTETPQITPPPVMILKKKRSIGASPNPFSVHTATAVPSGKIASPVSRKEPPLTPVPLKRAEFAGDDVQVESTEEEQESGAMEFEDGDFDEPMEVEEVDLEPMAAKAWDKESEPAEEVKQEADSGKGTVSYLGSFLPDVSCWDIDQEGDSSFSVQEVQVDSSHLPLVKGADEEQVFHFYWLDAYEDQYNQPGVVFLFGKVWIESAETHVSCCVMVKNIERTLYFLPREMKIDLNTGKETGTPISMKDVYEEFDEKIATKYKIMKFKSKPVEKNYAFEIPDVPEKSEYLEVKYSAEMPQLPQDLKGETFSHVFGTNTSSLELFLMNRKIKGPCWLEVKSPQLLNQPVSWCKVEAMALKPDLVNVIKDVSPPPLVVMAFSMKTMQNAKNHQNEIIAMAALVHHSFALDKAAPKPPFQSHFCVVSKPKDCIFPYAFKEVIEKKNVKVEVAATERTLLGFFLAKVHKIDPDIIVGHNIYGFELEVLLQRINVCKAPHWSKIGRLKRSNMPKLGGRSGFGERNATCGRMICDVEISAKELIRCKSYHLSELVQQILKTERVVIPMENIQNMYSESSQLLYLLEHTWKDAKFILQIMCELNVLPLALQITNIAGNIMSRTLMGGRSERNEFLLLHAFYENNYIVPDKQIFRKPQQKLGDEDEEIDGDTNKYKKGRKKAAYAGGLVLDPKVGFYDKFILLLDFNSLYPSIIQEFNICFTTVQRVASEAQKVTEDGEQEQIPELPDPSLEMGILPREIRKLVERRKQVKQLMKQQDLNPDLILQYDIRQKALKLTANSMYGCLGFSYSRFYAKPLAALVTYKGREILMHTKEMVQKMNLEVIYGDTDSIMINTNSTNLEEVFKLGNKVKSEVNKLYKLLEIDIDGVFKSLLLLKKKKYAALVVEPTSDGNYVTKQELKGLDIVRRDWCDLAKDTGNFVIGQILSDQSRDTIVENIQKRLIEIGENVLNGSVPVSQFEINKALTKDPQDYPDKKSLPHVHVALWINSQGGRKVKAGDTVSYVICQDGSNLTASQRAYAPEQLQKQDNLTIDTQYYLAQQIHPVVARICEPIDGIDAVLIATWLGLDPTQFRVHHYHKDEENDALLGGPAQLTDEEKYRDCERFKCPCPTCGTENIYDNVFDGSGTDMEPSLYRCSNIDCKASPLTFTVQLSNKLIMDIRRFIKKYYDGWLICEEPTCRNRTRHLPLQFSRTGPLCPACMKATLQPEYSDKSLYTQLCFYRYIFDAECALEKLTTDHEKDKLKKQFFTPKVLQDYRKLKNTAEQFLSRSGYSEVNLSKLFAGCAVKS
compound,measurement,setting,value
"Cc1c2oc3c(C)ccc(C(=O)N[C@@H]4C(=O)N[C@H](C(C)C)C(=O)N5CCC[C@H]5C(=O)N(C)CC(=O)N(C)[C@@H](C(C)C)C(=O)O[C@@H]4C)c3nc-2c(C(=O)N[C@@H]2C(=O)N[C@H](C(C)C)C(=O)N3CCC[C@H]3C(=O)N(C)CC(=O)N(C)[C@@H](C(C)C)C(=O)O[C@@H]2C)c(N)c1=O [Act. D, actinomycin D] (I: T[dV]P[Sar][NMeV] / II: T[dV]P[Sar][NMeV]; ester I:1-I:C, II:1-II:C; linker I:N-II:N via Actinocin(9to1))",IC50,human DNA polymerase β,7.9 ± 3 µM
same,IC50,human DNA polymerase α,5.8 ± 3.1 µM
same,IC50,human DNA polymerase γ,15.5 ± 4 µM
"C[C@@]1(O)[C@H](O)[C@@H](CO)O[C@H]1n1ccc(=O)[nH]c1=O [Compound N, β-D-2′-C-methyl-uracil]",EC50,Sb-1,55 µM
same,EC50,BVDV [1],18 µM
same,potency against BVDV relative to mCyd,BVDV [2],about 10 fold
same,EC50,DENV 2,≥ 100 µM
same,EC50,YFV,100 µM
same,EC50,REO-1,> 100 µM
same,result in cytotoxicity tests,[3],negative
same,mUrd in sera samples,[4],No mUrd was detected
same,EC50,WNV,80 µM
same,antiviral activity against a wide spectrum of other viruses,[5],essentially no antiviral activity
same,EC50,CVB-2,> 100 µM
same,CC50,[6],> 100 µM
"O=c1[nH]c(=O)n([C@@H]2O[C@H](CO)[C@@H](O)[C@@H]2F)cc1I [FIAU, 1,-2′-deoxy-2′-fluoro-1-β-D-arabinofuranosyl-5-iodo-uracil]",increase in lactic acid production over control cells,HepG2 cells [7],100%
Nc1ccn([C@H]2CC[C@@H](COP(=O)(O)OP(=O)(O)OP(=O)(O)O)O2)c(=O)n1 [ddC-TP],IC50,human DNA polymerase β,4.8 ± 1 µM
same,IC50,human DNA polymerase α,78 ± 23.4 µM
same,IC50,human DNA polymerase γ,2.7 ± 1 µM
"C[C@@]1(O)[C@H](O)[C@@H](COP(=O)(O)OP(=O)(O)OP(=O)(O)O)O[C@H]1n1ccc(N)nc1=O [mCyd-TP, 2′-C-methyl-cytidine-5′-triphosphate]",IC50,human DNA polymerase β,≥ 883 µM
same,IC50,human DNA polymerase γ,≥ 929 µM
"NC(=O)c1ncn([C@@H]2O[C@H](CO)[C@@H](O)[C@H]2O)n1 [ribavirin, 1-β-D-ribofuranosyl-1-1,2,4-triazole-3-carboxamide]",effect on serum levels of HCV-RNA,HCV,does not lower serum levels of HCV-RNA
same,patients with serum amino transferase levels reduced to normal,HCV,40%
same,"Incorporated drug amount, DNA","HepG2 cells [8]; 10 μM [3H] drug, 30 hours",0.0120^b pmole/μg DNA
same,"Incorporated drug amount, RNA","HepG2 cells [8]; 10 μM [3H] drug, 30 hours",0.0132^c pmole/μg RNA
same,"incorporation into both DNA and RNA, level relative to mCyd",HepG2 cells [8]; higher than mCyd,10 fold
same,CC50,[9],36 µM
interferon alpha 2b,reduction in virus titer,[10],approximately 0.1 log10
same,reduction in viral titer,[11],0.1 log
same,EC50,BVDV [12],2.6 IU per ml
same,viral reduction,BVDV [12]; even at 1000 IU per ml,≤ 2 logs
same,sensitivity of the mutant relative to wild-type,S405T mutant BVDV,~40 fold
